Laboratory results taken from patent publication US10065965B2, “Imidazo[1,2-B][1,2,4]triazine derivatives as antiparasitic agents” (GlaxoSmithKline Intellectual Property Development Limited, priority 2015, dated 2018).

Columns and labels:
Leishmania donovani = experiment: Assay 5 Leishmania donovani intracellular assay (eGFP amastigotes in THP-1 cells); type: cell-based; settings: 96 h, read-out: pEC50 value against Leishmania donovani (converted)
Method: Compounds were dispensed into black 384-well assay plates (Greiner) by acoustic dispensing (LabCyte ECHO). For potency determinations, eleven-point, one in three dilution curves were generated, with a top concentration of 50 μM. THP-1 human monocytes cells were dispensed in T225 tissue culture flasks and differentiated using 30 nM of PMA, after 24 hours they were infected overnight using Leishmania donovani expressing Green Fluorescent Protein (eGFP) amastigotes in the same T225 tissue culture flasks at a multiplicity of infection of 10. Next, any remaining free amastigotes were washed away with PBS and the infected THP-1 cells were harvested by trypsinisation. The infected cells were then plated into 384-well plates containing the compounds to be tested, at 3000 cells per well in RPMI media with 2% FBS and 25 mM Sodium bicarbonate. After 96 h incubation at 37° C. in presence of 5% CO2, the plates were fixed with 4% formaldehyde for 30 minutes, washed with PBS and stained with 0.1 mg/mL of DAPI for 30 minutes and washed again with PBS. The plates were imaged on a Perkin Elmer Opera high-content imaging system using a 20× air objective with two expositions, one for DAPI stain and other for eGFP. Images were analysed using the Acapella building blocks system (Perkin Elmer). […]

[1] = Assay 2 Trypanosoma cruzi intracellular assay, cytotoxicity against VERO cells; type: cell-based; settings: African green monkey, Vero cells infected with T. cruzi trypomastigotes, total number of Vero cells, minimum threshold 4.3, read-out: cytotoxicity against VERO cells, pEC50 (converted)
Method: Compounds were dispensed into black 384-well assay plates (Corning) by acoustic dispensing (LabCyte ECHO). For potency determinations, ten-point one in three dilution curves were generated, with a top concentration of 50 μM. Vero cells were infected overnight with T. cruzi trypomastigotes in T225 tissue culture flasks at a multiplicity of infection of 5. Next, any remaining free trypomastigotes were washed away with serum free MEM media and the infected Vero cells were harvested by trypsinisation. The infected Vero cells were then plated into 384-well plates containing the compounds to be tested, at 4000 cells per well in MEM media with 1% FCS. After 72 h incubation at 37° C. in presence of 5% CO2, the plates were fixed with 4% formaldehyde for 20 minutes at room temperature and stained with 5 μg/ml Hoechst 33342. The plates were imaged on a Perkin Elmer Operetta high-content imaging system using a 20× objective. Images were analysed using the Columbus system (Perkin Elmer). The image analysis algorithm first identified the Vero nuclei followed by demarcation of the cytoplasm and identification of intracellular amastigotes. This algorithm reported mean number of parasites per Vero cell and total number of Vero cells.

O=C(Nc1ccc(F)c(-c2cn3nc(N4CCOCC4)cnc3n2)c1)N1CCCC1 [Example 1, N-(4-fluoro-3-(2-morpholinoimidazo[1,2-b][1,2,4]triazin-6-yl)phenyl)pyrrolidine-1-carboxamide]
EC50 (Leishmania donovani): 158 nM | EC50 at 72 h [1]: > 50100 nM
